For test [1], the target named is T1, Coagulation factor XII (Homo sapiens, UniProt P00748).
T1 sequence (P00748 whole entry): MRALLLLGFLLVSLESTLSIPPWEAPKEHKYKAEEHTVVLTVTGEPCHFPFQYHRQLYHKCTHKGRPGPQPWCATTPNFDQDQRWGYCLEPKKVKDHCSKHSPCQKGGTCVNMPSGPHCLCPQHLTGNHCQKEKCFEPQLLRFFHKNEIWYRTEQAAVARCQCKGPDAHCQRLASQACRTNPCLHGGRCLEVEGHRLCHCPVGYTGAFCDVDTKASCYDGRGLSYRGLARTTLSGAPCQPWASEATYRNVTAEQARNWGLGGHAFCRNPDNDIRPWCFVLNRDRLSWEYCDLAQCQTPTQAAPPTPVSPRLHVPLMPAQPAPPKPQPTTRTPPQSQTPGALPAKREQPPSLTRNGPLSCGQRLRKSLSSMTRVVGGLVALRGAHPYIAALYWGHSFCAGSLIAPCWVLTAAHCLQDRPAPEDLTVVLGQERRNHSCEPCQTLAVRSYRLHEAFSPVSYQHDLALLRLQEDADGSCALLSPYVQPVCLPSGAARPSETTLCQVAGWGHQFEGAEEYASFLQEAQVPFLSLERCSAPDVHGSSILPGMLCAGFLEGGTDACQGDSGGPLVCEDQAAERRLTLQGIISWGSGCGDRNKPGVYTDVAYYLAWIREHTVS
Description: activated coagulation factor XII inhibitor potency, concentration-effect curve, cell-free (AID 716). In kind it is functional.

Test [2] concerns the target T2, Sphingosine 1-phosphate receptor 4 (Homo sapiens, UniProt O95977).
T2 sequence (O95977 whole entry): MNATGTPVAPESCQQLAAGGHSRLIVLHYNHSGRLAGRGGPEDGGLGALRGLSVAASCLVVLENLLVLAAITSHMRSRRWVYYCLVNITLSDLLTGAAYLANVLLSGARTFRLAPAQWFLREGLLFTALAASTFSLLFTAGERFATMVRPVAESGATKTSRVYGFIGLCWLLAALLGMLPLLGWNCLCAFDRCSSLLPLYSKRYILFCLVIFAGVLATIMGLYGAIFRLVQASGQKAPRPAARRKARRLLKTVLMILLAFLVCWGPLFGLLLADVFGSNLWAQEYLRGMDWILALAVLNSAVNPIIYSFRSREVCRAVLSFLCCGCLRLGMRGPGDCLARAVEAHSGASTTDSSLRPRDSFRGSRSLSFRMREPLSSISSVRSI
Description: Late-stage fluorescence dose response cell-based assay to identify agonists of the Sphingosine 1-Phosphate Receptor 4 (S1P4): purchased compounds EC50. [Related pubchem assays (depositor defined):AID1509, AID1523, AID1563, AID1686, AID1701, AID1801]. Format: functional.

Test [3] addresses T1, Coagulation factor XII. In kind it is functional.
The next test addresses Melanocortin receptor 4 (Homo sapiens, UniProt P32245). Format: functional, cell-based.
For test [4], the target named is Neurotensin receptor type 1 (Homo sapiens, UniProt P30989). Format: functional.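 Note: Image-based confirmatory dose-response assay measuring agonist activity at NTR1; NTR1-expressing U2OS osteosarcoma cells imaged for beta-arrestin GFP spot formation; agonist potency where compounds increase beta-arrestin recruitment.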
Chain of Neurotensin receptor type 1 (P30989 whole entry): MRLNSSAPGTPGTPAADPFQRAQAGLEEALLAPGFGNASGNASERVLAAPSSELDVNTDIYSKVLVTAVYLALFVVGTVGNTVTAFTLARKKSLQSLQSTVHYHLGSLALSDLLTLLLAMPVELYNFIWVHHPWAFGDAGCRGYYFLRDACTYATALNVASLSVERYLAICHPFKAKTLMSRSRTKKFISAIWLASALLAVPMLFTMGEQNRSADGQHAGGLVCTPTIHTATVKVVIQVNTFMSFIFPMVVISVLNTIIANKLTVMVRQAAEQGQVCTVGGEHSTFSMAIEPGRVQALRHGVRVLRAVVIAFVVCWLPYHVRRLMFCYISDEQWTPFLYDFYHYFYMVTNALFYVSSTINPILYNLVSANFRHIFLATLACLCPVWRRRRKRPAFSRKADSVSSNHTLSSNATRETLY
The subject of test [5] is Streptococcus sp. 'group A'. Description: Streptococcus pyogenes SK(-)GAS viability under kanamycin – luminescence, BacTiterGlo, confirmation, counter-screen for streptokinase expression inhibitor project, dose response (AID 1900). Format: functional, organism-based. (Counterscreens check selectivity or assay interference.)
Another test deals with Streptococcus. Description: GAS UMAA2166 growth inhibition – luminescence, BacTiterGlo, counter-screen for streptokinase expression inhibitor project, dose response (AID 1915).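 Note: potency for reduction of bacterial viability or growth.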 In kind it is functional, organism-based.
A short description of test [6]: NIH3T3 cell viability loss – ATP luminescence, mouse fibroblasts, counter-screen, dose response (AID 2010).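 Note: cells exposed to compound for about 90 hours before reading.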 In kind it is functional, cell-based.
For test [7], the target named is T3, Ubiquitin-conjugating enzyme E2 N (Homo sapiens, UniProt P61088).
T3 sequence (P61088 whole entry): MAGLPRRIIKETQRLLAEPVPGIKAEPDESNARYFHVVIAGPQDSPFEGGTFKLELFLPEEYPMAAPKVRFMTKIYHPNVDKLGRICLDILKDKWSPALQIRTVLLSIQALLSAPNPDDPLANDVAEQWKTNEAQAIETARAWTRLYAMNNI
In kind it is functional.

In a further test the target is T4, Streptokinase A (Streptococcus pyogenes serotype M1, UniProt P10520).
T4 sequence (P10520 whole entry): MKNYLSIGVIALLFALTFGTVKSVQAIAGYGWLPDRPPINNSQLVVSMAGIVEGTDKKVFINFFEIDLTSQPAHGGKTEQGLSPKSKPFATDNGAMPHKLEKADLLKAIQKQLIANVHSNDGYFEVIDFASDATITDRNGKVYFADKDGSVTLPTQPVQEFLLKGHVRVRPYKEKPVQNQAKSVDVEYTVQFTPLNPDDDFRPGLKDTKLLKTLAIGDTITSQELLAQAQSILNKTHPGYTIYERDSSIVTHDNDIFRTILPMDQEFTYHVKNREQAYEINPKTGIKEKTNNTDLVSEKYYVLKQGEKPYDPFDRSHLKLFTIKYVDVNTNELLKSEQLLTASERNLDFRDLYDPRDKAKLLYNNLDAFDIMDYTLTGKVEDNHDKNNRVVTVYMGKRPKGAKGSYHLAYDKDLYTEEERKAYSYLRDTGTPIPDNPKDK
Description: viability-normalized secreted streptokinase activity reduction – plasminogen activation absorbance, OD405, dose response (AID 1914).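 Note: secreted streptokinase activity via plasminogen activation per viability signal from cell pellet.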 Format: functional, Streptococcus pyogenes M1 GAS.

Test [8] in a line: Trypanosoma cruzi growth suppression in host cells – NIH3T3 host cells, beta-gal luminescence, confirmation (AID 2044).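 Note: intracellular parasites grown in NIH/3T3 mouse fibroblasts as host cells; luminescent beta-galactosidase reporter signal from transgenic T. cruzi replicating inside host cells; inhibitors lower the luminescence signal.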 In kind it is functional, cell-based.
A further test deals with T5, Bcl-2-related protein A1 (Mus musculus, UniProt Q07440).
T5 sequence (Q07440 whole entry): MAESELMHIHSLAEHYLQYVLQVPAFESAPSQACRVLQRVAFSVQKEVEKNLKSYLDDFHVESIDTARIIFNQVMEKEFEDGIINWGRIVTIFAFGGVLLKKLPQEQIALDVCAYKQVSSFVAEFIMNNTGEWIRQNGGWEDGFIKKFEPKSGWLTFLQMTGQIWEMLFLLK
Format: functional.

For test [9], the target named is T3, Ubiquitin-conjugating enzyme E2 N. Format: functional. The source holds these as a separate data set.
The next test concerns the target T6, X-box-binding protein 1 (Homo sapiens, UniProt P17861).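 Note: confirmatory dose-response counter-screen serving a CHOP assay.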
T6 sequence (P17861 whole entry): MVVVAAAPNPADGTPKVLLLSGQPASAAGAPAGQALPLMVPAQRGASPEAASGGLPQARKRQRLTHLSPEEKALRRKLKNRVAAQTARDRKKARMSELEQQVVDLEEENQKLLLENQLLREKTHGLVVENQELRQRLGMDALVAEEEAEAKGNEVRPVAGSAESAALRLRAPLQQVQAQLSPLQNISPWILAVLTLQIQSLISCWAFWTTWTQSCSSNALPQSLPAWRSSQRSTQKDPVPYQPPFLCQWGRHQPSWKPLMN
In kind it is functional, Cricetulus griseus.

The target of the next test is Phosphomannomutase 2 (Homo sapiens, UniProt O15305). Nature of the test: Counter screen SAR assay for PMM2 inhibitors via a fluorescence intensity assay. [Related pubchem assays (depositor defined):AID1545, AID1574].
Chain of Phosphomannomutase 2 (O15305 whole entry): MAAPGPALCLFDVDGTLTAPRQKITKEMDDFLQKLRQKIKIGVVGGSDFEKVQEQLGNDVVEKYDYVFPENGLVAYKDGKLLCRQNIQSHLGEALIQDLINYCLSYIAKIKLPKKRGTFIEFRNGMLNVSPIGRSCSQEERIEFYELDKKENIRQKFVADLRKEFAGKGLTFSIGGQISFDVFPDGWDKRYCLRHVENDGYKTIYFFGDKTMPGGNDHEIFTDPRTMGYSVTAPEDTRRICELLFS
For another test, the target named is Paired box protein Pax-8 (Homo sapiens, UniProt Q06710). Description: PAX8 transcriptional activity inhibition in RMG-I – RMG-I cells, luciferase, cherry-pick, dose response (AID 687027).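 Note: luciferase reporter driven by Pax8 target thyroperoxidase promoter measured by SteadyGlo luminescence.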 In kind it is functional, cell-based.
Chain of Paired box protein Pax-8 (Q06710 whole entry): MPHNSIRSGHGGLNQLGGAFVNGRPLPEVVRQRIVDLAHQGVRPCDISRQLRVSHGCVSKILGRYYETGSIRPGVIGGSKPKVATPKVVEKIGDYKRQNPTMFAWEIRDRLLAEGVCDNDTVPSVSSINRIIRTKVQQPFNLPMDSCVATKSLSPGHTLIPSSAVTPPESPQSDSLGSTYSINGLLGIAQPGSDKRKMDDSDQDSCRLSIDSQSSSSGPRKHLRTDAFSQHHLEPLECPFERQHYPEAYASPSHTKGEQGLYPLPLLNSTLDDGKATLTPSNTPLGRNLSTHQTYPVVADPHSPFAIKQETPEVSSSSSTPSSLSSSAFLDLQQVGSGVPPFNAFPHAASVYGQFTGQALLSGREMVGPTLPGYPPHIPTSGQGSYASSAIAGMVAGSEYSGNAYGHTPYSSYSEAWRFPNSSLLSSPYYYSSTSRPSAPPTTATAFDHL
The nature of test [10]: luciferase reporter signal suppression in cells – H4 neuroglioma cells, luminescence, dose response (AID 1990). In kind it is functional, cell-based.
Test [11] is described as follows: Luminescence Cell-Based Dose Response HTS to Identify Inhibitors of 5'UTR Stem-Loop Driven Prion Protein mRNA Translation in H4 Neuroglioblastoma Cells. [Related pubchem assays: 1827 (Project Summary), 1813 (Primary HTS)]. Format: functional.
Test [12] in a line: alpha-synuclein stem-loop luciferase translation blockers – H4 neuroglioma cells, luminescence, confirmation (AID 1988). In kind it is functional, cell-based.
Test [13] concerns the target T7, Short transient receptor potential channel 4 (Mus musculus, UniProt Q9QUQ5).
T7 sequence (Q9QUQ5 whole entry): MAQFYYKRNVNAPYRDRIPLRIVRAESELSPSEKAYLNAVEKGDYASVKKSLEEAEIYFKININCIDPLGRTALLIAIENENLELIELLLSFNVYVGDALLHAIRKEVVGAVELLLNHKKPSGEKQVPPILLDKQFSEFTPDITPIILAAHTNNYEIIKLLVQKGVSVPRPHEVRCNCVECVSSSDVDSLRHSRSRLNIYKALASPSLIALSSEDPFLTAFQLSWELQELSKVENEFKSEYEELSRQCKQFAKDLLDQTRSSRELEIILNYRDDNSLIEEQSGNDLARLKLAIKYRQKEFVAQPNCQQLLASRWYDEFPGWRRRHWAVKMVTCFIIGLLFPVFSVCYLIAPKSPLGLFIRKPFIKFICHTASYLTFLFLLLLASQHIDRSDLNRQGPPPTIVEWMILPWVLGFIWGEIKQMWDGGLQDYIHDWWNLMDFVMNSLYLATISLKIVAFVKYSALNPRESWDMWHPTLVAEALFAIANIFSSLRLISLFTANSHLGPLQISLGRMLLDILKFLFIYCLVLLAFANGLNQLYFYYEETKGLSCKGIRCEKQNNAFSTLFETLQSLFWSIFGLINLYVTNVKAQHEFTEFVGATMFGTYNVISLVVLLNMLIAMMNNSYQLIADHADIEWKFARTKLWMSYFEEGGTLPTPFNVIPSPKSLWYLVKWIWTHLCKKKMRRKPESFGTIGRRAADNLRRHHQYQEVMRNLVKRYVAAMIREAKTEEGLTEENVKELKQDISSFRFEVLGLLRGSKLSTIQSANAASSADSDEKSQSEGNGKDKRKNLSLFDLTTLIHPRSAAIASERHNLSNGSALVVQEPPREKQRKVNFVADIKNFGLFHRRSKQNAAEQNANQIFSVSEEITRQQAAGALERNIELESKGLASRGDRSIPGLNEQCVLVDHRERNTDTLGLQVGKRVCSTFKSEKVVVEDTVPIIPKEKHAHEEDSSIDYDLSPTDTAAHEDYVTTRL
Nature of the test: calcium entry via TRPC4 opening agents – cell-based, HEK293 TRPC4/mu-opioid, Fluo-4 calcium, dose response (AID 434937). Format: functional.

A further test concerns the target Cytochrome P450 2D6 (Homo sapiens, UniProt P10635).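 Note: CYP2D6 member of a cytochrome P450 panel assay.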
For test [14], the target named is T8, E3 ubiquitin-protein ligase XIAP (Homo sapiens, UniProt P98170). Nature of the test: small molecules displacing peptide from XIAP – biochemical, IAP family, fluorescence polarization (AID 1018). Format: functional.
T8 sequence (P98170 whole entry): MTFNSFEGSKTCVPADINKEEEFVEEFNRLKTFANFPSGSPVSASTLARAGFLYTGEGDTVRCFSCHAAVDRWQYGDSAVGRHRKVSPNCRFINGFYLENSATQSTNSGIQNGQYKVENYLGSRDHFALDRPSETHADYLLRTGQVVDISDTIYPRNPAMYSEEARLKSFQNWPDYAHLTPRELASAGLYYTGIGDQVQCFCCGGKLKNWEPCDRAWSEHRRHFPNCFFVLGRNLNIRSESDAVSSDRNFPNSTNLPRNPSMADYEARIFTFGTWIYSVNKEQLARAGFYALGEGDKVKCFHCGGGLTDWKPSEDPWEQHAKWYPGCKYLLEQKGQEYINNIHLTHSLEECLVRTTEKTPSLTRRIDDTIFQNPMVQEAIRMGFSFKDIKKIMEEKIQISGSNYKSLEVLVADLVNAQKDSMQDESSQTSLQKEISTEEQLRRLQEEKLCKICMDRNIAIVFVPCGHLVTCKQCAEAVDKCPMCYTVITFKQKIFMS
Test [15] deals with T8, E3 ubiquitin-protein ligase XIAP. Description: Counter Screen using XIAP-Bir3 for Chemical Antagonists of Bir1/2 domains of IAP-family anti-apoptotic proteins. [Related pubchem assays (depositor defined):AID1018, AID1449, AID1514, AID1638, AID1749, AID1750, AID488957, AID488963].

This is an account of results in ChEMBL document CHEMBL1201862, “PubChem BioAssay data set” (2004).

The source made the active and inactive calls.

Chain of Cytochrome P450 2D6 (P10635 whole entry): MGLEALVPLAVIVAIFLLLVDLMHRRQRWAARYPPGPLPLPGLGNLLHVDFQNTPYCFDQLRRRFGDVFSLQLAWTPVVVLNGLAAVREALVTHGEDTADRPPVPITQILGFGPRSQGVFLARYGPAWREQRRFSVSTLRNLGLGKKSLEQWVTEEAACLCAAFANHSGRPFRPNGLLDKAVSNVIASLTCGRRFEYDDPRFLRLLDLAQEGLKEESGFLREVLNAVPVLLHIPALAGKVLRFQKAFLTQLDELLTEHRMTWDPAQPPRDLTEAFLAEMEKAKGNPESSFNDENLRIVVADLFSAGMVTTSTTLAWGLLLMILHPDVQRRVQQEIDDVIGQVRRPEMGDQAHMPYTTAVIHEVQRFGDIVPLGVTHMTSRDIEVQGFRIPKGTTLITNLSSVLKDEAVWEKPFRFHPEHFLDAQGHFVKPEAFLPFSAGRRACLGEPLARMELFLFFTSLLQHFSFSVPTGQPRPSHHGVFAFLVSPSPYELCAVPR
Chain of Melanocortin receptor 4 (P32245 whole entry): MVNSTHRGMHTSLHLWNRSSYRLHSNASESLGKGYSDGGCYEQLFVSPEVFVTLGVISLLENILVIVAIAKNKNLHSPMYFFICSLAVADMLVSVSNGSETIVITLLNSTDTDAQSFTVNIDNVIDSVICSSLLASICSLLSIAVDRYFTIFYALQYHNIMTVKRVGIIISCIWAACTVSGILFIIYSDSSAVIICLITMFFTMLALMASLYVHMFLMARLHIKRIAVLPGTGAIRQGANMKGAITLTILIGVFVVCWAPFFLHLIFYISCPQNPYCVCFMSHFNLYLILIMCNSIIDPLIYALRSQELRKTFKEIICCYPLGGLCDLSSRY

As usually defined, the IC50 is the concentration needed to halve the response being measured. On to `CCOCCn1c(SCCCc2ccccc2)nc2c1c(=O)[nH]c(=O)n2C`, for which the IC50 at Coagulation factor XII [1] was > 50 µM (inactive).
One may read the EC50 as the concentration that produces a half-maximal response. As for `COc1ccc(OCCOc2ccc(C)nc2[N+](=O)[O-])cc1`, the EC50 in [2] is > 50 µM (inactive).
Regarding `O=S(=O)(N1CCCCC1)N1CCN(c2ccccc2F)CC1`, the IC50 on Coagulation factor XII [3] was > 50 µM (inactive).
In the case of `O=C1c2cccc3cccc(c23)C(=O)N1CC1CCN(CC(O)COc2ccc3ccccc3c2)CC1` (configuration not stated), the EC50 on Melanocortin receptor 4 was 6.31 µM (active); in test [4], 18.5 µM (active); in test [5] it was 6.34 µM (active); in the test with Streptococcus it was 18.6 µM (active); in test [6] it was > 60 µM (not active); on Streptokinase A, 17.9 µM (inconclusive). Moreover, in test [8], the EC50 was 1.65 µM (active). The IC50 is 15 µM (active) in [7], > 20 µM (inactive) on Bcl-2-related protein A1 and 7.69 µM (active) in test [9].
One may read the AC50 as the midpoint of the concentration-response curve, whichever way the signal moves. Consider `CCSc1nc(-c2ccccc2)nc(C(Cl)Cl)n1`, for which the “Absolute IC50 (XBP1)” value on X-box-binding protein 1 was 10 µM. Moreover, at Phosphomannomutase 2, the IC50 was > 100 µM (inactive). Moreover, the AC50 on Paired box protein Pax-8 was 1.95 µM (active). In addition, the EC50 in [10] is > 120 µM (not active); in test [11] it was 5.98 µM (active); in test [12], 1.11 µM (active).
With `CC(=O)N1CCc2c(sc(NC(=O)C3CC3)c2-c2nc3ccccc3s2)C1`, the IC50 on Coagulation factor XII [3] was 25.7 µM (active).
With `O=C(c1sc2ccccc2c1Cl)N(Cc1ccccc1)C1CCS(=O)(=O)C1` (configuration not stated), the EC50 in test [13] is 3.35 µM (active). Also, the AC50 at Cytochrome P450 2D6 is 14.1 µM (inconclusive).
Consider `Cc1cc(N2CCCC2=O)cc(C)c1S(=O)(=O)NCCOc1ccccc1`, for which, on Coagulation factor XII [1], the IC50 is > 50 µM (inactive).
As to `CCOc1ccccc1NC(=O)CN1CCC(C(=O)c2ccc(F)cc2)CC1`, the figures for the IC50 (in test [7]; at Bcl-2-related protein A1; in test [9]) were 13.8 µM (active), > 20 µM (inactive) and > 20 µM (inactive), respectively.
Consider `CCOC(=O)c1ccc(NC(=O)NCCc2c[nH]cn2)cc1`, for which the EC50 in test [13] was 0.133 µM (active).
`Cc1nn(CC(C)C)c(Cl)c1C(=O)OC(C)C(=O)Nc1ccccc1` (configuration not stated): the EC50 in test [2] is > 50 µM (inactive).
On to `CC/N=C1\Cn2c(nc3scc(-c4ccccc4)c3c2=O)CN1CC`, for which the IC50 in [14] is > 100 µM (not active); in test [15] it was > 100 µM (inactive).
On to `COc1ccc(OC)c(/C=N/NC(=O)c2ccc(Cn3cc([N+](=O)[O-])cn3)o2)c1`, for which the IC50 was > 100 µM (not active) in test [14] and > 100 µM (inactive) in [15].
